Data published in US12656349B2, “Measurement of bevacizumab-insensitive vascular endothelial growth factor-a” (Board of Regents, The University of Texas System, priority 2019, dated 2026).

Columns and labels:
[1] = system: VEGF in cancer cell-conditioned media; experiment: Quantification of unbound bevacizumab in whole and sEV-depleted cancer cell-conditioned media (ELISA); assay type: binding, human
Experimental: Samples of plasma and ascites (diluted 1:10 in PBS) and conditioned media were centrifuged at 2,400×g at 4° C. for 10 min to remove intact cells and cell debris. Thereafter, supernatants were filtered through a 0.2 μm pore size filter to remove larger particles. A 300 μL aliquot of filtrate was retained for analysis of VEGF. The remainder of the filtrate was centrifuged at 100,000×g at 4° C. for 18 h to remove sEVs. Thereafter, the supernatant (comprising of sEV-depleted sample) was assayed for VEGF.
Wells of 96-well High Bind microplates were coated with recombinant VEGF (100 ng) at RT for 16 h, After washing three times with wash buffer (R&D Systems), wells were blocked with 10% goat serum for 1 h and washed again. […] Absorbance was read at 450 nm.

VEGFR2 = VEGFR2 phosphorylation in HUVEC (immunoblot); assay type: cell-based, human
Experimental: (§1) Uptake of sEVs was blocked by treating HUVEC with chlorpromazine (15 μM) or dynasore (50 μM) for 30 min prior to addition of sEVs. As a negative control, HUVEC were pretreated with DMSO solvent (0.1%). VEGFR signaling was blocked by treating HUVEC with axitinib (1 nM) or vandetanib (1 μM) for 2 h or with neutralizing Ab to VEGFR2 (250 ng/mL) for 1 h prior to addition of sEVs or recombinant VEGF. […] Thereafter, mixtures were added to HUVEC cultures. To detect intracellular VEGF, cancer cells where indicated were incubated at 37° C. for 6 h with brefeldin A (BioLegend) (5 μg/mL) to block protein secretion and then harvested.
Extracts were prepared by lysing whole cells and sEVs in M-PER buffer (Thermo Fisher Scientific). Protein concentrations of lysates were determined by Bradford assay (BioRad). Lysates were separated by SDS-polyacrylamide gel electrophoresis under non-reducing conditions to detect VEGF and under reducing conditions to detect other proteins, and then transferred to polyvinylidene difluoride membrane (GE Healthcare). Membranes were blocked with 5% non-fat milk in Tris-buffered saline with 0.1% Tween-20 (TBS-T), incubated with primary Ab at 4° C. for 16 h, and then washed with TBS-T buffer. Primary Ab were used at the following dilutions: 1:1000 (for Ab to TSG101, α-actinin-4, HSP90B1, calnexin, phospho-VEGFR2, VEGFR2, VEGF); 1:2000 (for Ab to HSP70); 1:5000 (for Ab to actin). Thereafter, membranes were incubated with 1-IRP-conjugated secondary Ab (1:5000 dilution), washed and visualized with ECL detection reagent (Millipore). Immunoblot data was verified in 3 independent experiments.

HUVEC = experiment: Tube formation assay in HUVEC; assay type: cell-based, human
Experimental: as §1
Wells of 96-well plates were coated with growth factor-reduced Matrigel (BD Biosciences) (50 μL/well) and incubated at 37° C. for 30 min. HUVEC (10^4 cells/well) were then seeded in FBS-free Medium 199 without or with addition of sEVs (100 μg/mL) or recombinant VEGF (1 ng/mL), or seeded in whole or sEV-depleted conditioned media. Following incubation at 37° C. for 4 h, capillary tube structures were visualized under a Nikon TS100 light microscope attached to a digital camera. In each experiment, images of 2 to 3 random 100× fields of each well were captured by using NIS Element BR 4 software (Nikon). The number of tubes in each field was quantified by using NIH Image) software with Angiogenesis Analyzer plugin, and an average calculated for each well. […]

ES2 VEGF^−/− cells = experiment: Nude mice with i.p. ES2 VEGF−/− xenografts administered sEVs or recombinant VEGF; assay type: in vivo; conditions: vs control Ig
Experimental: (§2) Animal studies were conducted in compliance with protocols approved by the UTMDACC Institutional Animal Care and Use Committee. Four-week-old female nude mice (purchased from UTMDACC animal facility) were used to propagate xenografts. To evaluate VEGF levels in ascites, mice were inoculated i.p, with 1×10^6 ES2 VEGF^+/+ cells, and euthanized by CO2 asphyxiation upon formation of morbid ascites (median survival time of 3 weeks), To evaluate the effects of sEVs, mice were inoculated i.p. with 2×10^6 GFP-expressing ES2 VEGF^−/− cells. […] Mice were treated with these agents i.p. 3 times a week for 2 weeks and thereafter euthanized. […] The 6 doses of sEVs at 500 μg per dose was based on the average volume of ascites and concentration of tumor-derived sEV-VEGF in ascites that forms in mice with i.p. xenografts derived from ES2 VEGF^+/+ cells (FIGS. 15A, 15B). Following euthanasia, volumes of ascites were measured. GFP-expressing tumors were visualized under a Leica MZMLIII stereomicroscope equipped with a GFP filter set and digital camera. Images were captured by using Picture Frame software (Optronics). Tumor burden was quantified by measuring areas of fluorescence signals within the abdominal cavity in captured images by using Image Pro Plus software (Media Cybernetics) as performed previously (Ko et al., 2009). To visualize intratumoral blood vessels, sections of omental tumor tissues, frozen in Optimal Cutting Temperature compound (Thermo Fisher Scientific), were stained with Ab to GFP (1:500 dilution) and CD31 (1:50 dilution) and with DAPI, and viewed under a Nikon 80i fluorescence microscope. Numbers of intratumoral CD31^+ cells were counted in 5 random 100× fields per section and an average score was determined for each mouse. To evaluate circulating VEGF levels, mice were inoculated s.c. with 5×10^6 ES2 VEGF^+/+ cells or HCT116 VEGF^+/+ cells. At 7 days thereafter when tumors were palpable, blood samples were collected retro-orbitally. […] Volumes of s.c. tumors were calculated from 2 perpendicular measurements of tumor diameters taken using calipers. Pre- and post-treatment plasma samples were pre-cleared with Protein G Sepharose 4 Fast Flow (GE Healthcare) at 4° C. for 16 h to remove Ab-bound VEGF and thereafter were assayed for VEGF by ELISA.

parental ES2 cells = experiment: Nude mice with s.c. tumors from parental ES2 cells, tumor volume and plasma human VEGF; assay type: in vivo
Experimental: as §2, with “Pre- and post-treatment plasma samples were pre-cleared with Protein G Sepharose 4 Fast Flow (GE Healthcare) at 4° C. for 16 h to remove Ab-bound VEGF and thereafter were assayed for VEGF by ELISA.” left out

parental HCT116 cells = experiment: Nude mice with s.c. tumors from parental HCT116 cells, tumor volume and plasma human VEGF; assay type: in vivo
Experimental: as §2, with “Pre- and post-treatment plasma samples were pre-cleared with Protein G Sepharose 4 Fast Flow (GE Healthcare) at 4° C. for 16 h to remove Ab-bound VEGF and thereafter were assayed for VEGF by ELISA.” left out

sEV-VEGF = molecular target: T1, sEV-VEGF (Homo sapiens, UniProt P15692); experiment: Flow cytometric analysis of binding of coupled microbeads to VEGF on the surface of sEVs; conditions: exo-FITC fluorescence
T1 construct: Parental ES2, SKOV3, HCT116 and 786-0 cell lines were purchased from ATCC; endogenous in cells; host or cells: sEVs of parental (VEGF+/+) ES2 and HCT116 cells
T1 sequence (P15692 27-215 isoform P15692-2): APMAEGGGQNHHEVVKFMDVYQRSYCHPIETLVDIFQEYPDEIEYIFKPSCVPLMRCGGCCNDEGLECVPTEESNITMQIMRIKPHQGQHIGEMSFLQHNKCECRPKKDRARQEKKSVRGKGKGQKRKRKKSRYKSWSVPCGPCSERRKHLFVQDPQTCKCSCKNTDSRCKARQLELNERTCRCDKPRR
Experimental: To detect sEV-associated proteins by using Ab-coupled microbeads, acquisition and analysis of flow cytometry data were performed using a FACSCalibur™ cytometer equipped with CellQuest™ Pro software (BD Biosciences). […] Thereafter, microbeads were incubated with sEVs (100 μg, approximately 2×10^8 vesicles) at 4° C. for 16 h with rotation, washed with 1% BSA in PBS, stained with exo-FITC dye, and then acquired. Binding of Ab to protein on the surface of sEVs was evaluated by analyzing exo-FITC fluorescence in the gated population of singlet microbeads. A minimum of 10,000 gated events was analyzed for each sample. […] Following washing, microbeads were acquired and PerCP fluorescence analyzed in the gated population of singlet microbeads. […] Three independent experiments were performed for each assay. Contour plots were generated by using CellQuest™ Pro software.

[2] = endothelial cells stimulated with VEGF+/+ sEVs
[3] = endothelial cells stimulated with recombinant VEGF

bevacizumab: humanized monoclonal antibody to human vascular endothelial growth factor (VEGF)
Levels of unbound bevacizumab in whole media compared with sEV-depleted media ([1]; cancer cell-conditioned media incubated with bevacizumab): almost identical | Unbound bevacizumab levels ([1]; sEV-depleted media to which recombinant VEGF189 had been added): decrease | VEGFR2 phosphorylation (VEGFR2; [2]): not | VEGFR2 phosphorylation (VEGFR2; [3]): blocked | VEGFR2 phosphorylation (VEGFR2; endothelial cells stimulated with sEV-depleted media): completely blocked | VEGFR2 phosphorylation (VEGFR2; endothelial cells stimulated with whole media): only partially inhibited | Tube formation (HUVEC; [2]): not | Tube formation (HUVEC; [3]): blocked | Angiogenesis (ES2 VEGF^−/− cells; mice administered VEGF+/+ sEVs): not | Ascites (ES2 VEGF^−/− cells; mice administered VEGF+/+ sEVs): not | Tumor growth (ES2 VEGF^−/− cells; mice administered VEGF+/+ sEVs): not | Tumor growth (ES2 VEGF^−/− cells; mice administered recombinant VEGF189, 5 mg/kg i.p. 3 times a week for 2 weeks, P<0.001): inhibited | Angiogenesis (ES2 VEGF^−/− cells; mice administered recombinant VEGF189, P<0.0001): inhibited | Ascites (ES2 VEGF^−/− cells; mice administered recombinant VEGF189, P<0.001): inhibited | sEV-VEGF levels in plasma (parental ES2 cells; ES2, estimated from difference between whole and sEV-depleted plasma, following treatment, P<0,01): increased | non-sEV-VEGF levels in plasma (parental ES2 cells; ES2, sEV-depleted plasma, following treatment, P<0.05): decreased | Tumor growth (parental ES2 cells; s.c. ES2 tumors, treatment for one week): did not inhibit | sEV-VEGF levels in plasma (parental HCT116 cells; HCT116, estimated from difference between whole and sEV-depleted plasma, following treatment, P<0.05): increased | non-sEV-VEGF levels in plasma (parental HCT116 cells; HCT116, sEV-depleted plasma, following treatment, P<0.001): decreased | Tumor growth (parental HCT116 cells; s.c. HCT116 tumors, treatment for one week): did not inhibit

VEGFR1/R2-Fc: chimera of the ligand-binding domains of VEGFR1 and VEGFR2 fused to the Fc portion of human IgG1
Binding to VEGF+/+ sEVs (sEV-VEGF; coupled microbeads incubated with VEGF+/+ sEVs): bound | Binding to VEGF−/− sEVs (sEV-VEGF; coupled microbeads incubated with VEGF−/− sEVs (negative control)): not
